Source: ChEMBL document CHEMBL5154648, “Antitumor activity of novel POLA1-HDAC11 dual inhibitors” (Eur J Med Chem, 2022)
Calls of active or inactive are those of the source. No cut-off for these calls is given here.

Experiments:
H460-R9A = experiment: Antiproliferative activity against human H460-R9A cells at 0.75 to 12 uM after 72 hrs by MTT assay; format: functional, cell-based; conditions: dose 0.75-12 µM
NCI-H460 [1] = experiment: Antitumor activity against human NCI-H460 cells xenografted in mouse assessed as tumor growth inhibition at 20 mg/kg, po qd administered […] for 3 to 4 weeks; format: functional; conditions: time 3-4 weeks, read-out: TGI
[2] = Toxicity in mouse xenografted with human H460-R9A cells assessed as body weight loss at 20 mg/kg, po qd administered 5 times a week for 3 to 4 weeks; format: organism-based; conditions: in vivo, time 3-4 weeks
NCI-H460 [3] = experiment: Induction of cell cycle arrest in human NCI-H460 cells assessed as accumulation of cells at G2/M phase at 0.12 uM after 72 hrs by flow cytometry (reference value: 21.1%); format: functional
[4] = Induction of cell cycle arrest in human H460-R9A cells assessed as accumulation of cells at S phase at 2.2 uM after 72 hrs by flow cytometry (reference value: 34.5%); format: functional
A2780 [5] = experiment: Induction of cell cycle arrest in human A2780 cells assessed as accumulation of cells at S phase at 0.95 uM after 72 hrs by flow cytometry (reference value: 36.3%); format: functional
MM473 [6] = experiment: Induction of cell cycle arrest in human MM473-Luc cells assessed as accumulation of cells at S phase at 1.4 uM after 72 hrs by flow cytometry (reference value: 13.7%); format: functional
NCI-H460 [7] = experiment: Down-regulation of POLA1 protein expression in human NCI-H460 cells at 0.26 uM measured by Western blot analysis; format: functional, cell-based
A2780 [8] = experiment: Induction of cell cycle arrest in human A2780 cells assessed as accumulation of cells at G2/M phase at 0.95 uM after 72 hrs by flow cytometry (reference value: 15%); format: functional
A2780 [9] = experiment: Induction of DNA damage in human A2780 cells at 0.1 to 0.4 uM assessed as increase in p-H2AX levels and measured by Western blot analysis; format: functional, cell-based; conditions: dose 0.1-0.4 µM
NCI-H460 [10] = experiment: Induction of cell cycle arrest in human NCI-H460 cells assessed as accumulation of cells at S phase at 0.26 uM after 72 hrs by flow cytometry (reference value: 32.1%); format: functional
[11] = molecular target: T1, Histone deacetylase 11 (Homo sapiens) (UniProt Q96DB2); experiment: Inhibition of HDAC11 in human MM487 cells at 0.1 to 0.4 uM assessed as induction of p53 acetylation and measured by Western blot analysis; format: cell-based; conditions: dose 0.1-0.4 µM
T1 sequence (whole entry): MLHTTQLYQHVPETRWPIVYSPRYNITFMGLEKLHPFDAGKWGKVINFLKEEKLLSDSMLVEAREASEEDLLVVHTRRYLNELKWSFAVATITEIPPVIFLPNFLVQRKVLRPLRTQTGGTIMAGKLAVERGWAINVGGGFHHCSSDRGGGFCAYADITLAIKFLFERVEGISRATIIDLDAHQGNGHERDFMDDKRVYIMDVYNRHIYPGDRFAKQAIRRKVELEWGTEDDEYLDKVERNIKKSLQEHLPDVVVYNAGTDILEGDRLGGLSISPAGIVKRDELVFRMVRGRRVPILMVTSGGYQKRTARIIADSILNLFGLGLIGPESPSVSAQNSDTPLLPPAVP

A2780 [12] = experiment: Induction of cell cycle arrest in human A2780 cells assessed as accumulation of cells at G2/M phase at 0.6 uM after 72 hrs by flow cytometry (reference value: 15%); format: functional
A2780 [13] = experiment: Induction of cell cycle arrest in human A2780 cells assessed as accumulation of cells at S phase at 0.6 uM after 72 hrs by flow cytometry (reference value: 36.3%); format: functional
[14] = molecular target: T1, Histone deacetylase 11 (Homo sapiens); experiment: Inhibition of HDAC11 in human MM487 cells at 0.1 to 0.4 uM assessed as increase in p21 level and measured by Western blot analysis; format: cell-based; conditions: dose 0.1-0.4 µM
[15] = Induction of cell cycle arrest in human H460-R9A cells assessed as accumulation of cells at G0/1 phase at 2.8 uM after 72 hrs by flow cytometry (reference value: 50.1%); format: functional
A2780 [16] = experiment: Induction of cell cycle arrest in human A2780 cells assessed as accumulation of cells at G0/1 phase at 0.6 uM after 72 hrs by flow cytometry (reference value: 48.7%); format: functional
[17] = Antitumor activity against human H460-R9A cells xenografted in mouse assessed as tumor growth inhibition at 50 mg/kg, po qd administered 5 times a week for 3 to 4 weeks; format: functional; conditions: time 3-4 weeks, read-out: TGI
NCI-H460 [18] = experiment: Induction of cell cycle arrest in human NCI-H460 cells assessed as accumulation of cells at G2/M phase at 0.25 uM after 72 hrs by flow cytometry (reference value: 21.1%); format: functional
[19] = molecular target: T1, Histone deacetylase 11 (Homo sapiens); experiment: Inhibition of HDAC11 in human MM473 cells at 0.1 to 0.4 uM assessed as increase in p21 level and measured by Western blot analysis; format: cell-based; conditions: dose 0.1-0.4 µM
MM473 [20] = experiment: Antitumor activity against human MM473 cells xenografted in mouse assessed as tumor growth inhibition at 50 mg/kg, po bid administered 5 times a week for 3 weeks; format: functional; conditions: MM473, 504 h, read-out: TGI

Question: Which results are given for O=C(O)C=Cc1ccc(-c2ccc(O)c(C34CC5CC(CC(C5)C3)C4)c2)cc1?
Answer: Activity (H460-R9A): Active; inhibition in vivo at 20 mg/kg (NCI-H460 [1]): 64%; Activity [2]: 0%; Activity (NCI-H460 [3]): 6.5%; Activity [4]: 63.4%

Question: Which results are given for CC(Oc1ccc(-c2ccc(C=CC(=O)O)cc2)cc1C12CC3CC(CC(C3)C1)C2)C(=O)NO (stereo unspecified)?
Answer: Activity (A2780 [5]): 86.2%; Activity (MM473 [6]): 81.6%; Activity (NCI-H460 [7]): Active; Activity (A2780 [8]): 3%; Activity (A2780 [9]): Active; Activity (NCI-H460 [10]): 81.4%

Question: What does the source list for O=C(O)C=Cc1ccc(-c2ccc(OCC(=O)NO)c(C34CC5CC(CC(C5)C3)C4)c2)cc1?
Answer: inhibition [11]: Active; Activity (A2780 [12]): 6.5%; Activity (A2780 [13]): 78.9%; inhibition [14]: Active; Activity [15]: 49.7%; Activity (A2780 [16]): 14.6%; inhibition in vivo at 50 mg/kg [17]: 38%; Activity (NCI-H460 [18]): 2.8%; inhibition [19]: Active; inhibition in vivo at 50 mg/kg (MM473 [20]): 77%
